In patent US20110207796A1, “ALPHA-SYNUCLEIN KINASE” (Elan Pharma International Limited, priority 2008, published 2011):
Read-outs that look alike come from different tables or passages of the source.

Columns and labels:
PLK2 [1] = target: T1, PLK2 (Homo sapiens, UniProt Q9NYY3); experiment: in vitro biochemical assay of PLK2-driven synuclein phosphorylation; settings: for rank order of potency, Straight Biochemical: rank among 8 inhibitors
Procedure: The reaction was incubated at 37° C. The activity was analyzed by autoradiography.
In vitro biochemical assays using each of the four PLK family members as the kinase to phosphorylate synuclein were conducted.

PLK4 = target: T2, PLK4 (Homo sapiens, UniProt O00444); experiment: HEK-293 cells overexpressing synuclein and PLK4, inhibition of synuclein phosphorylation; assay type: cell-based
T2 sequence (O00444 1-970): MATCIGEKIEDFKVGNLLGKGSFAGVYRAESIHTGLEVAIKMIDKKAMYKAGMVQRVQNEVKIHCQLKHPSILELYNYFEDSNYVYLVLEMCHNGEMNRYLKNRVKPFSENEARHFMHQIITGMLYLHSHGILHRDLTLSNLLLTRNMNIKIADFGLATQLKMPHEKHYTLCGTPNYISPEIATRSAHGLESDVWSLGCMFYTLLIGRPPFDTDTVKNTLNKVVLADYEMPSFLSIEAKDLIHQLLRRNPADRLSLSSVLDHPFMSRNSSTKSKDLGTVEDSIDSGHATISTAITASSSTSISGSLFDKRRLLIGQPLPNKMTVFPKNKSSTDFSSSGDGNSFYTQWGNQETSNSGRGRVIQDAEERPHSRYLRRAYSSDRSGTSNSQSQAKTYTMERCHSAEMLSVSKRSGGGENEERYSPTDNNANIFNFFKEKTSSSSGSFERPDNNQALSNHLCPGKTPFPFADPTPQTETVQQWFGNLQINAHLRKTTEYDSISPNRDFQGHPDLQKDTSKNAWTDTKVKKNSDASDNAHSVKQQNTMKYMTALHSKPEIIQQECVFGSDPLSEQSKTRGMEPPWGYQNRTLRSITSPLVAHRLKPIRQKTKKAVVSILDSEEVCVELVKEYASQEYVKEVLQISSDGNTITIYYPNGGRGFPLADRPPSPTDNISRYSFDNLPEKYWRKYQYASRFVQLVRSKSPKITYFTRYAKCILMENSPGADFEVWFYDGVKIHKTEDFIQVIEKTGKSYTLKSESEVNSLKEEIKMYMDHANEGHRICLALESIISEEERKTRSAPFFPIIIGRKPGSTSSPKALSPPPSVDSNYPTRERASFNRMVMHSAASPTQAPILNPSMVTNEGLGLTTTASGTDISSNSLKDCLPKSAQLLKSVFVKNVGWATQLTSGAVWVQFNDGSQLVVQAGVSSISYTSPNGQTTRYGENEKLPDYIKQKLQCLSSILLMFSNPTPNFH
Procedure: (§1) All vectors had the sequence coding for the protein of interest. Transfection was accomplished using Lipofectamine 2000 (Invitrogen, Carlsbad, Calif.) with 0.08 μg vector. Cells were washed and harvested 48 hours post-transfection. A Micro BCA (Pierce) total protein assay and total synuclein and phospho-synuclein ELISAs were performed on each plate of treated cells.

[2] = tested on: synuclein phosphorylation by endogenous kinase; experiment: kinase inhibitor treatment of mouse cortical cultures (MCC), total and phospho-synuclein ELISA; assay type: cell-based
Procedure: Mouse cortical cultures from fetal (i) Swiss-Webster, (ii) C56BL/6 WT and (iii) C56BL/6 E46K-Synuclein Trangenic mice were prepared and maintained in B27/DMEM/1% Penicillin-Streptomycin at 37° C./10% CO2 for three to fourteen days and then treated with kinase inhibitors.
Cultures were exposed to inhibitors for two hours in B27/DMEM/1% Penicillin-Streptomycin. Cells were immediately washed in 100 μL of PBS plus Mg^2+ and Ca^2+, and harvested in ice-cold CEB minus EGTA plus protease inhibitors, frozen on dry ice and stored at −80° C. until processed. A Micro BCA (Pierce) total protein assay, and total synuclein and phospho-synuclein ELISAs were performed on each plate of treated cells using standard methods.

[3] = tested on: synuclein phosphorylation by constitutively active PLK2 (caPLK2); experiment: kinase inhibitor treatment of RVM cultures transduced with E46K-synuclein plus ca-PLK2; assay type: cell-based; settings: rat ventral mesencephalon cultures
Procedure: (§2) Rat Ventral Mesencephalon (RVM) cultures were prepared from E15 Wistar rats. The RVM cultures were cultured for 2 days and transduced with 0.75 MOI E46K-Synuclein lentivirus alone, or 0.75 MOI E46K-Synuclein lentivirus plus 0.75 MOI ca-PLK2 lentivirus. […] Transduced cultures were maintained in neuronal media with B27/1% FBS and 37° C./5% CO2 until treated with inhibitors. On DIV 17 (which corresponds to 15 days after viral transduction of the cultures) cells were treated with inhibitors for two hours. Cells were then harvested as detailed above in neuronal media with B27/1% FBS. A Micro BCA (Pierce) total protein assay, and total synuclein and phospho-synuclein ELISAs were performed on each plate of treated cells using standard methods.

[4] = tested on: synuclein phosphorylation (serine-129); experiment: inhibition of synuclein phosphorylation across the cellular paradigms (primary neuronal cultures and 293 cells); assay type: cell-based, mouse, rat and human; settings: for EC50: Homo sapiens, HEK293, most of the cellular paradigms / cell types tested, read-out: EC50 inhibition of synuclein phosphorylation, cellular paradigms
PLK1 = target: T3, PLK1 (Homo sapiens, UniProt P53350); experiment: HEK-293 cells overexpressing synuclein and PLK1, inhibition of synuclein phosphorylation; assay type: cell-based
T3 construct: expressed in transfected cells; host or cells: HEK-293
Procedure: as §1

PLK2 [5] = target: T1, PLK2; experiment: HEK-293 cells overexpressing synuclein and PLK2, inhibition of synuclein phosphorylation; assay type: cell-based; design: expressed in transfected cells; host or cells: HEK-293; settings: for rank order of potency, Over-Expressed PLK2 (293): Table 19; for Rank Order of Potency Based on Percent Inhibition of Synuclein Phosphorylation, Synuclein + PLK2: HEK-293, Table 22
Procedure: as §1

PLK3 = target: T4, PLK3 (Homo sapiens, UniProt Q9H4B4); experiment: HEK-293 cells overexpressing synuclein and PLK3, inhibition of synuclein phosphorylation; assay type: cell-based; settings: for EC50: HEK-293, Example 16, Table 21, read-out: EC50 Based on the Percent Inhibition of Synuclein Phosphorylation, Synuclein + PLK3; for Rank Order of Potency Based on Percent Inhibition of Synuclein Phosphorylation, Synuclein + PLK3: HEK-293, Table 22
T4 construct: expressed in transfected cells; host or cells: HEK-293
Procedure: as §1

[6] = tested on: synuclein phosphorylation by endogenous kinase; experiment: kinase inhibitor treatment of rat ventral mesencephalon (RVM) cultures transduced with E46K-synuclein; assay type: cell-based
Procedure: as §2

[7] = tested on: endogenous kinase (synuclein phosphorylation); experiment: HEK-293 cells overexpressing synuclein with empty vector, inhibition of synuclein phosphorylation; assay type: cell-based, human; settings: for rank order of potency, Endogenous Kinase (293): Table 19
Procedure: as §1

[8] = tested on: brain p-synuclein (p-Ser129); experiment: in vivo inhibition of phosphorylation of synuclein in wild-type FVB mice, brain western blot; design: species or system mouse; settings: IV tail vein 50 mg/kg
Procedure: The examples above describe the identification and in vitro validation of polo-like kinase 2 (PLK2) as an α-synuclein Ser 129-specific kinase. This example describes the ability of a kinase inhibitor (BI 2561) to decrease phosphorylation of α-synuclein in vivo. Wild-type FVB mice were treated by IV tail vein with 50 mg/kg of the PLK-specific inhibitor. Total α-synuclein and p-synuclein levels in brain (p-Ser129) were analyzed by western blot.

[9] = PLK2-driven synuclein phosphorylation, read-out: IC50 in the in vitro biochemical assay
[10] = E46K-Synuclein transgenic mouse cortical cultures, read-out: EC50, E46K-Syn TG MCC
[11] = WT mouse cortical cultures, read-out: EC50, WT-MCC
[12] = 293 cells, Table 18, read-out: EC50, Over-Expressed PLK2 (293)
[13] = Homo sapiens, HEK293, HEK-293, Example 16, Table 21, read-out: EC50 Based on the Percent Inhibition of Synuclein Phosphorylation, Synuclein + Vector

T4 sequence (Q9H4B4 whole entry): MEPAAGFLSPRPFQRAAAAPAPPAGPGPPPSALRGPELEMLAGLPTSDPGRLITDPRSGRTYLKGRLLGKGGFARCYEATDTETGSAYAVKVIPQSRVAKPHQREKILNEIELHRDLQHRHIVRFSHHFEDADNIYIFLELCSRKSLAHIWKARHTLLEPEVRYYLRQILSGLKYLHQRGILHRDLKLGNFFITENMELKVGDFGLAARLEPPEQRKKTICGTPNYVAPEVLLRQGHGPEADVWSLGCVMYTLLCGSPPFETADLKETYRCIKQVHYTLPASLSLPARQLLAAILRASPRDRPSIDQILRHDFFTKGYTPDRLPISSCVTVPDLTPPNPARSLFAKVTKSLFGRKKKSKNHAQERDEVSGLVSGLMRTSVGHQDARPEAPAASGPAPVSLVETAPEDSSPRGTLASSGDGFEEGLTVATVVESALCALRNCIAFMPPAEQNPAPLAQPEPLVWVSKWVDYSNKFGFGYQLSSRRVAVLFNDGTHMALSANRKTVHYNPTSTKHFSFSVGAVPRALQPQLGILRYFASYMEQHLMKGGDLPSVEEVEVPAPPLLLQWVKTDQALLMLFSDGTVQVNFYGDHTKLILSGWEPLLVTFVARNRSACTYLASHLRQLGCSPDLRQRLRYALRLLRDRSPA
T1 sequence (Q9NYY3 whole entry): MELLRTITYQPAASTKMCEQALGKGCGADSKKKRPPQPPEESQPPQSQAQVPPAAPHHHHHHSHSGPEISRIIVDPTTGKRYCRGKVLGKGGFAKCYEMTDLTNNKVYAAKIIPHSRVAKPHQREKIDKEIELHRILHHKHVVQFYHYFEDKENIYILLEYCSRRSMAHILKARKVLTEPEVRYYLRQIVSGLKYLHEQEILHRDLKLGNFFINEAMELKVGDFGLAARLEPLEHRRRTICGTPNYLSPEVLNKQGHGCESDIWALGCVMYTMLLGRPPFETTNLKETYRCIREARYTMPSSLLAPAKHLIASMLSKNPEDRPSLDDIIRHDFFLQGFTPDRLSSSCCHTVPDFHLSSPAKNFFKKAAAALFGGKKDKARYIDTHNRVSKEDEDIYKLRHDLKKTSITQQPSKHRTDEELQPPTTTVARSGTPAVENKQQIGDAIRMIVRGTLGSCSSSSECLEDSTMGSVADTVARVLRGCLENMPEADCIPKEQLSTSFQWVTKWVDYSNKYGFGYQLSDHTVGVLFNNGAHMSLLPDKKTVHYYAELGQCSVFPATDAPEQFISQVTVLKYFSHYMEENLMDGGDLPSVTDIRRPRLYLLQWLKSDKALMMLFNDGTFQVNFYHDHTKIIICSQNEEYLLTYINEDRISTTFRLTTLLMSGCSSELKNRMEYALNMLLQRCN
T3 sequence (P53350 whole entry): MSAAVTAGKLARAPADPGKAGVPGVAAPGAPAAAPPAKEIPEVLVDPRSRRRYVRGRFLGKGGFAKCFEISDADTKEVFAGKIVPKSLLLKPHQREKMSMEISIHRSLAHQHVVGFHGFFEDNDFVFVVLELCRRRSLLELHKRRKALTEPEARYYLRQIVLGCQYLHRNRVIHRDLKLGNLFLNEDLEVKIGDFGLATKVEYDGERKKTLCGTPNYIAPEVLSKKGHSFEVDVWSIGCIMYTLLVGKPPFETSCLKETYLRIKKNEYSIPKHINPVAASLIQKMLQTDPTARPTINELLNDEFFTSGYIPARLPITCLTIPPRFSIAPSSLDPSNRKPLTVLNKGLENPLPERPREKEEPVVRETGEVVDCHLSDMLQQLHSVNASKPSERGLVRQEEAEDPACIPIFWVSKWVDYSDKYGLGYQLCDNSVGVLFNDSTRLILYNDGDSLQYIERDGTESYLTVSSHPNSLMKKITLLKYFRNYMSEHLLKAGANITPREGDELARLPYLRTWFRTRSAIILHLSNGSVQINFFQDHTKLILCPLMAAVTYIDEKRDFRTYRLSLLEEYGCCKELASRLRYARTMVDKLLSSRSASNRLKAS

| Compound | IC50 (PLK2 [1]; [9]) [µM] | rank order of potency, Straight Biochemical (PLK2 [1]) | EC50 [2, 10] [µM] | EC50 [2, 11] [µM] | EC50 [3] [µM] | EC50 [4] [µM] | EC50 (PLK2 [5]; [12]) [µM] | rank order of potency, Over-Expressed PLK2 (293) (PLK2 [5]; 293 cells) | Rank Order of Potency Based on Percent Inhibition of Synuclein Phosphorylation, Synuclein + PLK2 (PLK2 [5]) | EC50 (PLK3) [µM] | Rank Order of Potency Based on Percent Inhibition of Synuclein Phosphorylation, Synuclein + PLK3 (PLK3) | EC50 [6] [µM] | rank order of potency, Endogenous Kinase (293) ([7]; 293 cells) | EC50 [7, 13] [µM] | other results |
| --- | --- | --- | --- | --- | --- | --- | --- | --- | --- | --- | --- | --- | --- | --- | --- |
| CN(C)c1nc2c(Br)c(Br)c(Br)c(Br)c2[nH]1 [DMAT, 2-Dimethylamino-4,5,6,7-tetrabromo-1H-benzimidazole] | 2.07 | 2 | 16.6 | 18.7 | 28.5 | 16 to 33 | 18.6 | 4 | 2 | 37.3 | 2 | 20 | 3 | 55.7 | Rank Order of Potency Based on Percent Inhibition of Synuclein Phosphorylation, Synuclein + PLK4 (PLK4; HEK-293, Table 22): 2; rank order of potency, E46K-Syn TG MCC ([2]; E46K-Synuclein transgenic mouse cortical cultures): 4; rank order of potency, Swiss-Webster MCC ([2]; Swiss-Webster mouse cortical cultures): 4; EC50 ([2]; Swiss-Webster mouse cortical cultures, read-out: EC50, Swiss-Webster MCC): 21.6 µM; rank order of potency, WT-MCC ([2]; WT mouse cortical cultures): 4; rank order of potency, RVM E46K-Synuclein caPLK2 [3]: 4; EC50 (PLK1; HEK-293, Example 16, Table 21, read-out: EC50 Based on the Percent Inhibition of Synuclein Phosphorylation, Synuclein + PLK1): 27.2 µM; Rank Order of Potency Based on Percent Inhibition of Synuclein Phosphorylation, Synuclein + PLK1 (PLK1; HEK-293, Table 22): 3; EC50 (PLK2 [5]; HEK-293, Example 16, Table 21, read-out: EC50 Based on the Percent Inhibition of Synuclein Phosphorylation, Synuclein + PLK2): 13.9 µM; rank order of potency, RVM E46K-Synuclein [6]: 4; Rank Order of Potency Based on Percent Inhibition of Synuclein Phosphorylation, Synuclein + Vector ([7]; HEK-293, Table 22): 2; EC50 ([7]; Homo sapiens, HEK293, 293 cells, Table 18, read-out: EC50, Endogenous Kinase (293)): 33 µM; EC50 ([7]; Homo sapiens, HEK293, HEK-293, synuclein only, read-out: EC50 synuclein phosphorylation, endogenous kinase): 56 µM |
| NC(=O)c1sc2c([N+](=O)[O-])cc(C(F)(F)F)cc2[n+]1[O-] [ELN-481080] | 7.7 | 3 | – | – | 25.2 | 12 to 38 | 38 | 5 | 3 | > 100 | 3 | ~100 | 4 | > 100 | EC50 synuclein phosphorylation, over-expressed PLK4 (PLK4; HEK-293): not reached; EC50 synuclein phosphorylation, over-expressed PLK3 (PLK3; HEK-293): not reached; inhibition of synuclein phosphorylation, over-expressed PLK3 (PLK3; at concentrations of 30-100 μM): 30-40%; EC50 ([7]; Homo sapiens, HEK293, read-out: EC50, Endogenous Kinase (293)): ~100 µM; EC50 ([7]; Homo sapiens, HEK293, read-out: EC50 synuclein phosphorylation, endogenous kinase, previous experiments): ~100 µM |
| CC[C@@H]1C(=O)N(C)c2cnc(Nc3ccc(C(=O)NC4CCN(C)CC4)cc3OC)nc2N1C1CCCC1 [BI 2561] | – | – | – | – | – | – | – | – | – | – | – | – | – | – | total α-synuclein levels in brain, western blot [8]: no effect; brain p-synuclein levels (p-Ser129), western blot ([8]; from 1 hour to 6 hours after treatment): clear decrease |
| Scytonemin | – | – | > 100 | > 100 | > 100 | – | > 100 | – | – | – | – | > 100 | – | – | inhibition of 50% of synuclein phosphorylation in the in vitro assay (PLK2 [1]; PLK2-driven phosphorylation in vitro): did not inhibit 50%; IC50 (PLK2 [1]; in vitro PLK2-driven synuclein phosphorylation, read-out: IC50, Straight Biochemical): > 100 µM; inhibition of 50% of synuclein phosphorylation in cells ([4]; cell types tested): did not inhibit 50%; EC50 ([7]; 293 cells, Table 18, read-out: EC50, Endogenous Kinase (293)): > 100 µM |
